Test results as given in ChEMBL document CHEMBL5584300, “Bioinformatic Approaches Identify Hybrid Antibiotics against Tuberculosis via d-Amino Acid-Activating Adenylation Domains from Cordyceps militaris” (J Nat Prod, 2024).
In brackets after ≈: the same amount, converted by molar mass. Activity calls are given as the source filed them. The calls are words filed in the database; no cut-off is given here.

Experiments:
[1] = tested on: Mycolicibacterium smegmatis; assay: Antitubercular activity against Mycobacterium smegmatis mc2 155 assessed as reduction in microbial growth incubated for […] by CLSI based broth microdilution method; format: functional
[2] = tested on: Mycobacterium tuberculosis; assay: Antitubercular activity against Mycobacterium tuberculosis H37Rv ATCC 27294 assessed as reduction in microbial growth incubated for 6 days under anaerobic condition by microplate Alamar Blue assay; format: functional; settings: H37Rv ATCC 27294, 144 h, time 6 day
[3] = tested on: Mycobacterium tuberculosis; assay: Antitubercular activity against Mycobacterium tuberculosis H37Rv ATCC 27294 assessed as reduction in microbial growth incubated for 6 days under aerobic condition by microplate Alamar Blue assay; format: functional; settings: H37Rv ATCC 27294, 144 h, time 6 day
[4] = tested on: Staphylococcus aureus; assay: Antibacterial activity against methicillin-resistant Staphylococcus aureus ATCC 6538 assessed as reduction in microbial growth incubated for 20 hrs by CLSI based broth microdilution method; format: functional
[5] = tested on: Staphylococcus aureus; assay: Antibacterial activity against Staphylococcus aureus ATCC 6538P assessed as reduction in microbial growth incubated for 20 hrs by CLSI based broth microdilution method; format: functional
[6] = tested on: Bacillus subtilis; assay: Antibacterial activity against Bacillus subtilis ATCC 9372 assessed as reduction in microbial growth incubated for 20 hrs by CLSI based broth microdilution method; format: functional
[7] = tested on: Enterococcus faecalis; assay: Antibacterial activity against vancomycin-resistant Enterococcus faecalis ATCC 51299 assessed as reduction in microbial growth incubated for 20 hrs by CLSI based broth microdilution method; format: functional
[8] = tested on: Staphylococcus aureus; assay: Antibacterial activity against methicillin-resistant Staphylococcus aureus ATCC 43300 assessed as reduction in microbial growth incubated for 20 hrs by CLSI based broth microdilution method; format: functional
[9] = tested on: Enterococcus faecalis; assay: Antibacterial activity against Enterococcus faecalis ATCC 29212 assessed as reduction in microbial growth incubated for 20 hrs by CLSI based broth microdilution method; format: functional
[10] = tested on: Staphylococcus aureus; assay: Antibacterial activity against Staphylococcus aureus ATCC 25923 assessed as reduction in microbial growth incubated for 20 hrs by CLSI based broth microdilution method; format: functional
[11] = tested on: Mycobacterium tuberculosis; assay: Antitubercular activity against Mycobacterium tuberculosis H37Rv ATCC 27294 assessed as reduction in microbial growth incubated for 6 days by microplate Alamar Blue assay; format: functional; settings: H37Rv ATCC 27294, 144 h, time 6 day
[12] = tested on: Mycobacterium tuberculosis; assay: Antitubercular activity against Mycobacterium tuberculosis H37Rv ATCC 27294 infected in BALB/c mouse chronic model assessed as log reduction in lung at 10 mg/kg drug administered after 28 days post infection and measured after 4 weeks; format: functional
[13] = tested on: Mycobacterium tuberculosis; assay: Antitubercular activity against Mycobacterium tuberculosis H37Rv ATCC 27294 infected in BALB/c mouse assessed as log reduction in lung at 10 mg/kg measured after 4 weeks; format: functional
[14] = tested on: Escherichia coli; assay: Antibacterial activity against Escherichia coli ATCC 25922 assessed as reduction in microbial growth incubated for 20 hrs by CLSI based broth microdilution method; format: functional
[15] = tested on: Mycobacterium tuberculosis; assay: Antitubercular activity against Mycobacterium tuberculosis H37Rv ATCC 27294 infected in BALB/c mouse chronic model assessed as log reduction in lung at 320 mg/kg drug administered twice daily after 28 days post infection and measured after 4 weeks; format: functional
[16] = tested on: Mycobacterium tuberculosis; assay: Antitubercular activity against Mycobacterium tuberculosis H37Rv ATCC 27294 infected in BALB/c mouse assessed as log reduction in lung at 160 mg/kg measured after 4 weeks; format: functional
[17] = tested on: Mycobacterium tuberculosis; assay: Antitubercular activity against Mycobacterium tuberculosis H37Rv ATCC 27294 infected in BALB/c mouse assessed as reduction in bacterial count measured after 4 weeks; format: functional, organism-based; settings: dose 160-640 mg/kg
[18] = Cytotoxicity against human DLD-1 cells assessed as reduction in cell viability incubated for 48 hrs by sulforhodamine B assay; format: toxicity, cell-based
[19] = Cytotoxicity against human HGC-27 cells assessed as reduction in cell viability incubated for 48 hrs by sulforhodamine B assay; format: toxicity, cell-based
[20] = tested on: Mycobacterium tuberculosis; assay: Antitubercular activity against Mycobacterium tuberculosis H37Rv ATCC 27294 infected in BALB/c mouse assessed as reduction in bacterial count at 80 mg/kg measured after 4 weeks relative to control; format: functional; parameters: scale not given: the % may be the effect or the level left
[21] = tested on: Mycobacterium tuberculosis; assay: Bactericidal activity against Mycobacterium tuberculosis H37Rv ATCC 27294 assessed as reduction in bacterial count at 16 time MIC by time kill assay; format: functional, organism-based; settings: time 2-10 day, TDE = time-dependent effect
[22] = Cytotoxicity against human Hep3B cells assessed as reduction in cell viability incubated for 48 hrs by sulforhodamine B assay; format: toxicity, cell-based, Hep 3B2
[23] = tested on: Mycobacterium tuberculosis; assay: Bactericidal activity against Mycobacterium tuberculosis H37Rv ATCC 27294 expressing pFCA-luxAB assessed as reduction in bacterial count at 16 times MIC preincubated for 10 days under hypoxic condition followed by aerobic condition for 28 hrs by LORA; format: functional, organism-based; settings: time 268.0 hrs
[24] = tested on: Mycobacterium tuberculosis; assay: Antitubercular activity against Mycobacterium tuberculosis H37Rv ATCC 27294 infected in BALB/c mouse assessed as reduction in bacterial count at 10 to 40 mg/kg measured after 4 weeks; format: functional, organism-based; settings: dose 10-40 mg/kg
[25] = Cytotoxicity against human HepG2 cells assessed as reduction in cell viability incubated for 48 hrs by sulforhodamine B assay; format: toxicity, cell-based
[26] = tested on: Mycobacterium tuberculosis; assay: Antitubercular activity against Mycobacterium tuberculosis H37Rv ATCC 27294 infected in BALB/c mouse assessed as reduction in bacterial count in lung at 10 mg/kg measured after 4 weeks; format: functional, organism-based

CC1=C[C@H]2C[C@@H](C)CC[C@]2(C)[C@@](C)(C(=O)C2=C(O)[C@@H](CO)NC2=O)[C@H]1/C=C/C=C/C=C/C[C@@H](C)O
MIC [1]: > 64 µg/mL
MIC [2]: > 64 µg/mL
MIC [3]: 0.5 µg/mL

CC1(C)S[C@@H]2[C@H](NC(=O)[C@H](N)c3ccccc3)C(=O)N2[C@H]1C(=O)O [AMPICILLIN]
MIC [4]: 2 µg/mL
MIC [5]: > 64 µg/mL
MIC [6]: 4 µg/mL
MIC [7]: 4 µg/mL
MIC [8]: > 64 µg/mL
MIC [9]: 2 µg/mL
MIC [10]: 4 µg/mL

C/C=C/C=C/[C@H]1C(C)=C[C@H]2C[C@@H](C)CC[C@@H]2[C@@]1(C)/C(O)=C1/C(=O)[C@@H](CO)N(C)C1=O
MIC [11]: 16 µg/mL

C/C=C/[C@@H]1C=C[C@@H]2C[C@H](C)CC[C@H]2[C@]1(C)/C(O)=C1/C(=O)[C@H](CO)N(C)C1=O
MIC [11]: > 64 µg/mL

CC1=C[C@H]2C[C@@H](C)CC[C@@H]2[C@@](C)(C(=O)C2=C(O)[C@H](CO)N(C)C2=O)[C@H]1/C=C/C=C/C=C/C[C@@H](C)O
MIC [1]: > 64 µg/mL
MIC [2]: > 64 µg/mL
MIC [3]: 1 µg/mL

NNC(=O)c1ccncc1 [ISONIAZID]
Activity [12]: 3 log10CFU
Activity [13]: 2.5 log10CFU

CC1=C[C@@H]2C[C@@H](C)CC[C@]2(C)[C@@](C)(C(=O)C2=C(O)[C@@H](CO)NC2=O)[C@H]1/C=C/C=C/C=C/C[C@@H](C)O
MIC [1]: > 64 µg/mL
MIC [2]: > 64 µg/mL
MIC [3]: 2 µg/mL

CC1=C[C@H]2C[C@@H](C)CC[C@]2(C)[C@@](C)(C(=O)C2=C(O)[C@@H](CO)N(C)C2=O)[C@H]1/C=C/C=C/C=C/C[C@@H](C)O
MIC [14]: > 64 µg/mL
Activity [15]: 2.3 log10CFU
MIC [4]: 4 µg/mL
MIC [5]: 8 µg/mL
Activity [16]: 2 log10CFU
MIC [6]: 8 µg/mL
MIC [1]: 0.25 µg/mL
MIC [2]: > 64 µg/mL
Activity [17]: Dose-Dependent Effect
MIC [7]: 8 µg/mL
MIC [8]: 4 µg/mL
IC50 at 48 h [18]: > 64 µg/mL
IC50 at 48 h [19]: > 64 µg/mL
MIC [3]: 0.016 µg/mL
Activity [20]: 100%
Activity [21]: Tde
IC50 at 48 h [22]: > 64 µg/mL
MIC [9]: 4 µg/mL
Activity [23]: inactive
Activity [24]: Dose-Dependent Effect
MIC [10]: 8 µg/mL
IC50 at 48 h [25]: > 64 µg/mL

CO[C@H]1/C=C/O[C@@]2(C)Oc3c(C)c(O)c4c(O)c(c(/C=N/N5CCN(C)CC5)c(O)c4c3C2=O)NC(=O)/C(C)=C\C=C\[C@H](C)[C@H](O)[C@@H](C)[C@@H](O)[C@@H](C)[C@H](OC(C)=O)[C@@H]1C [RIFAMPIN]
Activity [26]: inactive
Activity [12]: 3 log10CFU
MIC [11]: 0.25 µg/mL
MIC [1]: 16 µg/mL
MIC [2]: > 64 µg/mL
MIC [3]: 0.25 µg/mL

CC(=O)O[C@H]1C(=O)[C@@]2(C)[C@H]([C@H](OC(=O)c3ccccc3)[C@]3(O)C[C@H](OC(=O)[C@H](O)[C@@H](NC(=O)c4ccccc4)c4ccccc4)C(C)=C1C3(C)C)[C@]1(OC(C)=O)CO[C@@H]1C[C@@H]2O [PACLITAXEL]
IC50 at 48 h [18]: 0.031 µg/mL (≈ 0.0363 µM)
IC50 at 48 h [19]: 0.008 µg/mL (≈ 0.00937 µM)
IC50 at 48 h [25]: 0.016 µg/mL (≈ 0.0187 µM)
